Values quoted from earlier work as cited in US9125411B2, “UV absorbers for reducing the E/Z isomerization of pesticides” (BASF SE, priority 2010, dated 2015).

Substance: metaflumizone
- pesticidal activity of the E isomer relative to the Z isomer (E isomer higher than Z isomer): up to 10 fold
- change of activity by irradiation by light (Takagi et al., Veterinary Parasitology, 2007): loses activity
